Values quoted from earlier work, collected in patent US20170265459A1, “PROPAGULE COATINGS” (E I DU PONT DE NEMOURS AND COMPANY, priority 2014, published 2017).

| SMILES | water solubility at 20° C. |
| --- | --- |
| CNC(=O)c1cc(Cl)cc(C)c1NC(=O)c1cc(Br)nn1-c1ncccc1Cl [Chlorantraniliprole, chlorantraniliprole] | about 1 milligram per liter |
| CNC(=O)c1cc(C#N)cc(C)c1NC(=O)c1cc(Br)nn1-c1ncccc1Cl [Cyantraniliprole, cyantraniliprole] | about 14.2 milligram per liter |
